Test results taken from patent US20260184693A1, “INHIBITORS OF SOLUTE CARRIER FAMILY 6A MEMBER 19 (SLC6A19) AND METHODS OF USE THEREOF” (Maze Therapeutics, Inc., priority 2022, published 2026).

What follows are compounds tested against T1, human SLC6A19 (Homo sapiens, UniProt Q695T7) (assay: Example B2: 13C6,15N-isoleucine uptake, RapidFire mass spectrometry, in CHO cells with doxycycline-inducible expression of human SLC6A19 and TMEM27). Details: read-out: SLC6A19_RapidFire Uptake Assay IC50.
T1 construct: expressed in transfected cells
T1 sequence (Q695T7 1-634): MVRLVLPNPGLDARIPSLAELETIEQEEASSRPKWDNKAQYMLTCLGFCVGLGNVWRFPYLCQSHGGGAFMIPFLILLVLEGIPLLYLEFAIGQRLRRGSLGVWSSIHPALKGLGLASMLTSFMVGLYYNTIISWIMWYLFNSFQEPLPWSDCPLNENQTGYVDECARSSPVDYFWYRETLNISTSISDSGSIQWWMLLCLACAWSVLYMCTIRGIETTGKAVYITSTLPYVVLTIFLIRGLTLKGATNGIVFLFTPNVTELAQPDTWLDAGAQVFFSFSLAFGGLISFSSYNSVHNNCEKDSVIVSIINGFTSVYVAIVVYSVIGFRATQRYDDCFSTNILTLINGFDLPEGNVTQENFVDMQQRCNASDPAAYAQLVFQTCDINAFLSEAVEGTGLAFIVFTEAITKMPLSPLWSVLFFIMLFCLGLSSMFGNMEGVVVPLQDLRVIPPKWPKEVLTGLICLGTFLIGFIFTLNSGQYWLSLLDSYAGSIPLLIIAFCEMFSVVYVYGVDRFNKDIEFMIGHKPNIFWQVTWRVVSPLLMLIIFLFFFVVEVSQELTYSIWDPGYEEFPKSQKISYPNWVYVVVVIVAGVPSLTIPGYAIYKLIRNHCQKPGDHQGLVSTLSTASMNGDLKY
T1 sequence (Q9HBJ8 15-222 partner): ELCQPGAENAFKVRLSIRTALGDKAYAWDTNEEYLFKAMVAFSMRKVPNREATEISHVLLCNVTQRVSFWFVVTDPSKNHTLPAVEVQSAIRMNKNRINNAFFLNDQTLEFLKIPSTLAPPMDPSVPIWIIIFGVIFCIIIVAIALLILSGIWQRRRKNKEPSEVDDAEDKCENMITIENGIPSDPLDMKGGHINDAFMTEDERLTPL
Format: cell-based
Outline: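 Labelled isoleucine (13C6,15N; 2 mM added) was given 20 min at 37 °C, following a 20-min compound pre-treatment (10-point 2-fold series, duplicate). Cells were doxycycline-induced CHO co-expressing human SLC6A19 and TMEM27. Intracellular label was quantified by RapidFire-MS peak areas against a 13C-leucine standard.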

| IC50 [µM] | Structure (SMILES) |
| --- | --- |
| 8.96 | CN(C(=O)NCc1cc2cc(Cl)ccc2[nH]1)[C@@H]1CCCN(C(=O)c2cncnc2)C1 [Compound 20, (R)-3-((5-chloro-1H-indol-2-yl)methyl)-1-methyl-1-(1-(pyrimidine-5-carbonyl)piperidin-3-yl)urea] |
| > 31.8 | CN1CC(C(=O)N2CCC[C@@H](N(C)C(=O)NCc3cc4cc(Cl)ccc4[nH]3)C2)C1 [Compound 129, (R)-3-((5-chloro-1H-indol-2-yl)methyl)-1-methyl-1-(1-(1-methylazetidine-3-carbonyl)piperidin-3-yl)urea] |
| 2.93 | CN(C)C(=O)NCC(=O)N1CCC[C@@H](N(C)C(=O)NCc2cc3cc(Cl)ccc3[nH]2)C1 [Compound 101, (R)-3-((5-chloro-1H-indol-2-yl)methyl)-1-(1-((dimethylcarbamoyl)glycyl)piperidin-3-yl)-1-methylurea] |
| 2.79 | CN(C(=O)NCc1cc2cc(Cl)ccc2[nH]1)[C@@H]1CCCN(C(=O)C(C)(C)O)C1 [Compound 180, (R)-3-((5-chloro-1H-indol-2-yl)methyl)-1-(1-(2-hydroxy-2-methylpropanoyl)piperidin-3-yl)-1-methylurea] |
| 0.67 | CC(=O)N1CCC[C@@H](N(C)C(=O)NCc2cc3ccc(OCc4ccon4)cc3[nH]2)C1 [Compound 141, (R)-1-(1-acetylpiperidin-3-yl)-3-((6-(isoxazol-3-ylmethoxy)-1H-indol-2-yl)methyl)-1-methylurea] |
| 0.151 | CN(C(=O)NCc1cc2cc(Cl)ccc2[nH]1)[C@@H]1CCCN(C(=O)C2CC2)C1 [Compound 17, (R)-3-((5-chloro-1H-indol-2-yl)methyl)-1-(1-(cyclopropanecarbonyl)piperidin-3-yl)-1-methylurea] |
| 1.49 | Cc1cc(C(=O)N2CCC[C@@H](N(C)C(=O)NCc3cc4cc(Cl)ccc4[nH]3)C2)on1 [Compound 31, (R)-3-((5-chloro-1H-indol-2-yl)methyl)-1-methyl-1-(1-(3-methylisoxazole-5-carbonyl)piperidin-3-yl)urea] |
| 1.24 | CN(C(=O)NCc1cc2cc(Cl)ccc2[nH]1)[C@@H]1CCCN(C(=O)CCC(N)=O)C1 [Compound 46, (R)-4-(3-(3-((5-chloro-1H-indol-2-yl)methyl)-1-methylureido)piperidin-1-yl)-4-oxobutanamide] |
| 0.327 | CC(=O)N1CCC[C@@H](N(C)C(=O)NCc2cc3cc(Cl)cc(C)c3[nH]2)C1 [Compound 227, (R)-1-(1-acetylpiperidin-3-yl)-3-((5-chloro-7-methyl-1H-indol-2-yl)methyl)-1-methylurea] |
| 0.542 | CN(C(=O)NCc1cc2cc(Cl)ccc2[nH]1)[C@@H]1CCCN(C(=O)C2CCCO2)C1 (stereo partly drawn) [Compound 61, 3-((5-chloro-1H-indol-2-yl)methyl)-1-methyl-1-((3R)-1-(tetrahydrofuran-2-carbonyl)piperidin-3-yl)urea] |
| > 23.4 | CN(C(=O)NCc1cc2cc(Cl)ccc2[nH]1)[C@@H]1CCCN(C(=O)c2ncnn2C)C1 [Compound 28, (R)-3-((5-chloro-1H-indol-2-yl)methyl)-1-methyl-1-(1-(1-methyl-1H-1,2,4-triazole-5-carbonyl)piperidin-3-yl)urea] |
| 0.708 | CC(=O)N1CCC[C@@H](N(C)C(=O)NCc2cc3ccc(F)cc3[nH]2)C1 [Compound 160, (R)-1-(1-acetylpiperidin-3-yl)-3-((6-fluoro-1H-indol-2-yl)methyl)-1-methylurea] |
| 0.745 | CN(C(=O)NCc1cc2cc(Cl)ccc2[nH]1)[C@@H]1CCCN(C(=O)C2CC(C)(O)C2)C1 (stereo partly drawn) [Compound 99, (R)-3-((5-chloro-1H-indol-2-yl)methyl)-1-(1-(3-hydroxy-3-methylcyclobutane-1-carbonyl)piperidin-3-yl)-1-methylurea] |
| 1.63 | CN(C(=O)NCc1cc2cc(Cl)ccc2[nH]1)[C@@H]1CCCN(C(=O)C2CCCCO2)C1 (stereo partly drawn) [Compound 93, 3-((5-chloro-1H-indol-2-yl)methyl)-1-methyl-1-((3R)-1-(tetrahydro-2H-pyran-2-carbonyl)piperidin-3-yl)urea] |
| 0.504 | COc1cc2[nH]c(CNC(=O)N(C)[C@@H]3CCCN(C(C)=O)C3)cc2cc1Cl [Compound 153, (R)-1-(1-acetylpiperidin-3-yl)-3-((5-chloro-6-methoxy-1H-indol-2-yl)methyl)-1-methylurea] |
| 3 | CN(C(=O)NCc1cc2cc(Cl)ccc2[nH]1)[C@@H]1CCCN(C(=O)CC2(O)CCC2)C1 [Compound 98, (R)-3-((5-chloro-1H-indol-2-yl)methyl)-1-(1-(2-(1-hydroxycyclobutyl)acetyl)piperidin-3-yl)-1-methylurea] |
| 0.284 | Cc1cc(COc2cc3[nH]c(CNC(=O)N(C)[C@@H]4CCCN(c5cccnn5)C4)cc3cc2Cl)no1 [Compound 144, (R)-3-((5-chloro-6-((5-methylisoxazol-3-yl)methoxy)-1H-indol-2-yl)methyl)-1-methyl-1-(1-(pyridazin-3-yl)piperidin-3-yl)urea] |
| > 2.81 | CN(C(=O)NCc1cc2cc(Cl)ccc2[nH]1)[C@@H]1CCCN(C(=O)c2onc3ccccc23)C1 [Compound 69, (R)-1-(1-(benzo[c]isoxazole-3-carbonyl)piperidin-3-yl)-3-((5-chloro-1H-indol-2-yl)methyl)-1-methylurea] |
| 0.194 | CC(=O)N1CCC[C@@H](N(C)C(=O)NCc2cc3cc(C)c(Cl)cc3[nH]2)C1 [Compound 157, (R)-1-(1-acetylpiperidin-3-yl)-3-((6-chloro-5-methyl-1H-indol-2-yl)methyl)-1-methylurea] |
| 1.61 | CN(C(=O)NCc1cc2cc(Cl)ccc2[nH]1)[C@@H]1CCCN(C(=O)c2c[nH]cn2)C1 [Compound 13, (R)-1-(1-(1H-imidazole-4-carbonyl)piperidin-3-yl)-3-((5-chloro-1H-indol-2-yl)methyl)-1-methylurea] |
| 0.369 | Cc1ccn(CC(=O)N2CCC[C@@H](N(C)C(=O)NCc3cc4cc(Cl)ccc4[nH]3)C2)n1 [Compound 85, (R)-3-((5-chloro-1H-indol-2-yl)methyl)-1-methyl-1-(1-(2-(3-methyl-1H-pyrazol-1-yl)acetyl)piperidin-3-yl)urea] |
| 2.49 | CN(C(=O)NCc1cc2cc(Cl)ccc2[nH]1)[C@@H]1CCCN(C(=O)CNC(N)=O)C1 [Compound 29, (R)-1-(1-(carbamoylglycyl)piperidin-3-yl)-3-((5-chloro-1H-indol-2-yl)methyl)-1-methylurea] |
| 0.743 | CN(C(=O)NCc1cc2cc(Cl)ccc2[nH]1)[C@@H]1CCCN(C(=O)c2cn[nH]c2)C1 [Compound 11, (R)-1-(1-(1H-pyrazole-4-carbonyl)piperidin-3-yl)-3-((5-chloro-1H-indol-2-yl)methyl)-1-methylurea] |
| 7.78 | CN(C(=O)NCc1cc2cc(Cl)ccc2[nH]1)[C@@H]1CCCN(C(=O)C2CCC(=O)N2)C1 (stereo partly drawn) [Compound 60, 3-((5-chloro-1H-indol-2-yl)methyl)-1-methyl-1-((3R)-1-(5-oxopyrrolidine-2-carbonyl)piperidin-3-yl)urea] |
| 8.6 | CN(C(=O)NCc1cc2cc(Cl)ccc2[nH]1)[C@@H]1CCCN(C(=O)C2(CO)CCC2)C1 [Compound 122, (R)-3-((5-chloro-1H-indol-2-yl)methyl)-1-(1-(1-(hydroxymethyl)cyclobutane-1-carbonyl)piperidin-3-yl)-1-methylurea] |
